Experimental data as given in US10653693B2, “PRMT5 inhibitors and uses thereof” (Epizyme, Inc., priority 2014, dated 2020).
pIC50: −log10 of the molar value. Read-outs that look alike come from different tables or passages of the source. Values belong to the compound of their own block, whether it stands above or below them.

Key:
[1] = test system: Maver-1; test: Long-term proliferation (LTP) assay; type: cell-based; details: Homo sapiens, Maver1, Table 3, read-out: LTP IC50
[2] = test system: Jeko-1; test: Long-term proliferation (LTP) assay; type: cell-based; details: Homo sapiens, Table 3, read-out: LTP IC50
[3] = test system: Granta-519; test: Long-term proliferation (LTP) assay; type: cell-based; details: Homo sapiens, Table 3, read-out: LTP IC50
[4] = test system: Mino; test: Long-term proliferation (LTP) assay; type: cell-based; details: Homo sapiens, Table 3, read-out: LTP IC50
[5] = Body weight loss in Z-138 xenograft study; type: in vivo
Experimental: (§1) Data presented in this example were determined after analysis of 21 day samples of mantle cell lymphoma tumors. Cmin PK samples were taken prior to the last dose on day 21. Tumors were excised, weighed and processed for methyl mark. Methyl mark reduction was measured in tumor samples and is shown as percent of vehicle control (POC). Both SYM11 and sDMA Elisa were used to measure methyl mark and the data shown is averaged from 10 animals. Tumor growth inhibition was determined using tumor volume reduction at day 21 expressed as a percent of POC. In vivo inhibition curves were also generated and IC50 values determined. Plasma levels from each group are averaged from 5 animals. […] The average body weight loss (BWL) in all groups was <6%. All doses tested show >50% TGI. […] The average BWL in all groups was <4%. The average BWL in all groups was <8%, except in the 100 mg/kg does group were 4 animals exceeded BWL of 15%.

[6] = test system: sDMA methylation in Jeko-1 cells; test: sDMA western blot, 10 kDa band to total SmD3; type: cell-based; details: Homo sapiens, Table 3, read-out: sDMA Western IC50
Experimental: (§2) The measurement of the 10 kDa band was used to calculate the methylation IC50 values. […] Concentration-dependent decreases in the 10 kDa band were observed on day 4 in all cell lines tested with representative western blots shown for Z-138 and Maver-1 cell lines (FIG. 1). Levels of the 10 kDa band from the western blots were quantified by densitometry and ratios of 10 kDa band (postulated to be SmD3me2s) to total SmD3 were calculated to determine the IC50s (Table 2, n=1 for all samples).

[7] = test system: sDMA methylation in Z-138 cells; test: sDMA western blot, 10 kDa band to total SmD3; type: cell-based; details: Homo sapiens, Table 3, read-out: sDMA Western IC50
Experimental: as §2

[8] = test system: sDMA methylation in Maver-1 cells; test: sDMA western blot, 10 kDa band to total SmD3; type: cell-based; details: Homo sapiens, Maver1, Table 3, read-out: sDMA Western IC50
Experimental: as §2

[9] = test system: sDMA methylation in Mino cells; test: sDMA western blot, 10 kDa band to total SmD3; type: cell-based; details: Homo sapiens, Table 3, read-out: sDMA Western IC50
Experimental: as §2

[10] = test system: sDMA methylation in Granta-519 cells; test: sDMA western blot, 10 kDa band to total SmD3; type: cell-based; details: Homo sapiens, Table 3, read-out: sDMA Western IC50
Experimental: as §2

[11] = test system: Z-138 xenograft model; test: 21 day mantle cell lymphoma xenograft study: TGI and tumor methyl mark; type: in vivo; details: Z-138 xenograft; all doses tested; day 21
Experimental: as §1, with “Both SYM11 and sDMA Elisa were used to measure methyl mark and the data shown is averaged from 10 animals.” left out

[12] = test system: Maver-1 xenograft model; test: as above; type: in vivo; details: all doses tested, day 21
Experimental: as §1

[13] = test system: Z-138 cells; test: Annexin-V staining (apoptosis); type: cell-based, Human; details: 200 nM
Experimental: (§3) The mechanism of cell killing was evaluated in the MCL cell lines, Z-138 and Mayer-1. Cells were treated at various time points with 2 nM, 20 nM, and 200 nM of Formula B. Apoptosis was assessed by measuring the percentage of Annexin-V positive cells and the assay was performed in triplicate.

[14] = test system: Maver-1 cells; test: Annexin-V staining (apoptosis); type: cell-based, Human; details: after 4 days of treatment
Experimental: as §3

[15] = test system: Z-138; test: Long-term proliferation (LTP) assay; type: cell-based; details: Homo sapiens, Table 3, read-out: LTP IC50
Experimental: FIG. 4 illustrates a representative sample of a long-term proliferation assay performed in the mantle cell lymphoma cell line Z-138. Assays were performed in technical triplicates, reading cell viability over 14 days. Growth curves (top panel) were calculated in Excel. IC50 (bottom panel) and IC90 (not shown) values were calculated in GraphPad Prism using a non-linear regression analysis, fixing the top and bottom of the curves to 100 and 0%, respectively. The IC50 values in the Table are indicated in microM. [table]

[16] = test system: MiaPaca-2 cells; test: 2D-proliferation assay; type: cell-based; details: Homo sapiens
Experimental: (§4) Calculation of growth inhibitory concentrations (g IC50) at Days 4, 6 and 13 treated with Formula D. 2D-proliferation assays were also performed on pancreatic cell lines treated with Formula D. Treatment of both Miapaca-2 and Panc-1 cells with Formula D results in a decrease in cell proliferation, as shown in FIG. 19.

[17] = test system: Panc-1 cells; test: 2D-proliferation assay; type: cell-based; details: Homo sapiens
Experimental: as §4

[18] = test system: Miapaca-2; test: Foci formation and cellular morphology; type: cell-based
Experimental: (§5) FIG. 18 illustrates the effect of foci formation and cellular morphology in pancreatic cancer cell lines (Miapaca-2, Panc-1). The effects of treatment with Formula D on pancreatic cancer cell morphology was also tested.

[19] = test system: Panc-1; test: Foci formation and cellular morphology; type: cell-based
Experimental: as §5

pIC50 [6]: 8.06
pIC50 [7]: 7.85
pIC50 [8]: 9.52
pIC50 [9]: 8.15
pIC50 [10]: 8.70
Structure (SMILES): CC(=O)N1CCC(Nc2cc(C(=O)NC[C@H](O)CN3CCc4ccccc4C3)ncn2)CC1 [Formula A]
pIC50 [1]: 7.49
pIC50 [2]: 7.95
pIC50 [3]: 8.33
pIC50 [4]: 6.97
body weight loss (BWL) exceeded by 4 animals ([5]; 100 mg/kg dose group): > 15%
average body weight loss (BWL) in all groups ([5]; 21 days): < 8%
Tumor growth inhibition (TGI) [11]: > 50%
Tumor growth inhibition (TGI) [12]: > 50%
increase in Annexin-V positive cells ([13]; after 4 days): 12%
increase in Annexin-V positive cells ([13]; after 6 days): 40%
cells stained positive for Annexin-V [14]: 8%
pIC50 [15]: 8.24

Structure (SMILES): O=C(COc1cccc2cccnc12)NC[C@@H](O)CN1CCc2ccccc2C1 [Formula D]
pIC50 ([16]; MIA PaCa-2, 96 h, Day 4, read-out: growth inhibitory concentration (gIC50)): 6.46
pIC50 ([16]; MIA PaCa-2, 144 h, Day 6, read-out: growth inhibitory concentration (gIC50)): 6.57
pIC50 ([16]; MIA PaCa-2, 312 h, Day 13, read-out: growth inhibitory concentration (gIC50)): 6.03
pIC50 ([17]; 96 h, Day 4, read-out: growth inhibitory concentration (gIC50)): 5.70
pIC50 ([17]; 144 h, Day 6, read-out: growth inhibitory concentration (gIC50)): 5.91
pIC50 ([17]; 312 h, Day 13, read-out: growth inhibitory concentration (gIC50)): 5.41
effect on pancreatic cancer cell morphology / growth [18]: inhibition of cancer cell growth
effect on pancreatic cancer cell morphology / growth [19]: inhibition of cancer cell growth
